The test system of one data set is rats. Description: general toxicology studies, rats. It is filed as in vivo, rat.
A short description of data set [1]: food effect study, 5 × 100 mg capsules (KD025-105). It is filed as in vivo, human. To be noted: for AUC(0-t) / AUC(0-inf) / Cmax / Tmax / half-life: male, human, plasma, oral, 500 mg, 5 × 100 mg capsules; for Tmax: read-out: Tmax, median (range). How it is done:
Both studies were single-center, open-label, randomized, single dose crossover studies in healthy males.
Water was permitted ad libitum except for 1 hour pre-and post-dose.
In both studies, serial blood samples for PK analysis were collected at pre-dose and 1, 2, 4, 6, 8, 12, 16, 24, and 36 hours post-dose. An additional sample at 30 hours post-dose was collected in the first study; additional samples were collected 3, 5, and 48 hours post-dose in the second study. Blood samples (5-6 mL per sample) were collected in K3EDTA tubes on ice and were processed within 30 minutes of collection, then frozen at approximately-70 to −80° C. shortly after collection.
Sample preparation was performed by protein precipitation.
Statistical analyses were performed in SAS using the PROC MIXED procedure and the Restricted Maximum Likelihood estimation method. In both studies, the presence of a food effect was evaluated by a formal statistical analysis on natural log-transformed AUC and Cmax using mixed effect modeling techniques. The model included treatment, period, and sequence as fixed effects and subject nested within sequence as a random effect. Adjusted geometric mean ratios (GMRs) and their 90% confidence intervals (CIs) were calculated for fed (test) versus fasted (reference) treatments. The absence of a food effect was to be concluded if the 90% CI was within the bioequivalence limits of 80.00 to 125.00%.

Read-outs that look alike come from different tables or passages of the source.

For `CC(C)NC(=O)COc1cccc(-c2nc(Nc3ccc4[nH]ncc4c3)c3ccccc3n2)c1` [Belumosudil, 2-{3-[4-(1H-indazol-5-ylamino)-2-quinazolinyl]phenoxy}-N-(propan-2-yl) acetamide], the “dose with decreased follicular development in ovaries” value in the data set with rats was found to be 275 mg/kg/day. The “GMRs fed vs fasted for Cmax and AUC” value in data set [1] (500 mg capsules) is “above 125%”. The AUC(0-t) in data set [1] (fasted, read-out: AUC0-24, arithmetic mean (SD)) turned out to be 7980 ng·h/mL; in data set [1] (fasted, read-out: AUC0-24, geometric mean (geometric CV %)) it was 7600 ng·h/mL; in data set [1] (fasted, read-out: AUClast, arithmetic mean (SD)), 8590 ng·h/mL; in data set [1] (fasted, read-out: AUClast, geometric mean (geometric CV %)) it was 8190 ng·h/mL; in data set [1] (fed, read-out: AUC0-24, arithmetic mean (SD)), 25100 ng·h/mL; in data set [1] (fed, read-out: AUC0-24, geometric mean (geometric CV %)), 23300 ng·h/mL. Moreover, the AUC(0-t) stood at 26200 ng·h/mL in data set [1] (fed, read-out: AUClast, arithmetic mean (SD)) and 24400 ng·h/mL in data set [1] (fed, read-out: AUClast, geometric mean (geometric CV %)). The AUC(0-inf) in data set [1] (fasted, read-out: AUCinf, arithmetic mean (SD)) turned out to be 8700 ng·h/mL; in data set [1] (fasted, read-out: AUCinf, geometric mean (geometric CV %)) it was 8310 ng·h/mL; in data set [1] (fed, read-out: AUCinf, arithmetic mean (SD)), 26900 ng·h/mL; in data set [1] (fed, read-out: AUCinf, geometric mean (geometric CV %)) it was 25100 ng·h/mL. In addition, the Cmax came out at 1580 ng/mL in data set [1] (fasted, read-out: Cmax, arithmetic mean (SD)); 1500 ng/mL in data set [1] (fasted, read-out: Cmax, geometric mean (geometric CV %)); 4280 ng/mL in data set [1] (fed, read-out: Cmax, arithmetic mean (SD)); 3780 ng/mL in data set [1] (fed, read-out: Cmax, geometric mean (geometric CV %)). In addition, the Tmax was 2 h in data set [1] (fasted) and 4 h in data set [1] (fed). The half-life is 9.5 h in data set [1] (fasted, read-out: t1/2, arithmetic mean (SD) (converted)); 9 h in data set [1] (fasted, read-out: t1/2, geometric mean (geometric CV %) (converted)); 8 h in data set [1] (fed, read-out: t1/2, arithmetic mean (SD) (converted)); 7.9 h in data set [1] (fed, read-out: t1/2, geometric mean (geometric CV %) (converted)).

The values are drawn from patent US20240350493A1 (Kadmon Corporation, LLC, priority 2022, published 2024).
